Measurements as given in patent US20210371782A1, “METHODS FOR OPTICAL MICROPATTERNING OF HYDROGELS AND USES THEREOF” (President and Fellows of Harvard College, priority 2016, published 2021).

Assay: Solubility in water of riboflavin types
Type: physicochemical
Conditions: compared with other types of riboflavin

SMILES: Cc1cc2nc3c(=O)[nH]c(=O)nc-3n(C[C@H](O)[C@H](O)[C@H](O)COP(=O)(O)O)c2cc1C [riboflavin 5′ phosphate]
- solubility in water: most soluble in water
